# Laboratory results as given in patent US9796777B2, “Methods of treating malignant tumors” (Canimguide Therapeutics AB, priority 2007, dated 2017).
# How the values were obtained:
# PBMCs = assay: PHA-induced proliferation of PBMC in the presence of albumin peptides and/or dHSA; assay type: cell-based, human; details: PBMCs from two healthy controls; two PHA concentrations
# Excerpt: Venous blood was drawn from healthy volunteers or from cancer patients in glass vacuum tubes with acid dextrose citrate solution A as anti-coagulant (Vacutainer, Becton Dickinson, Franklin Lakes, N.J.). Erythrocytes were removed by sedimentation on 2% dextran T500 solution (Amersham Pharmacia Biotech AB, Uppsala, Sweden) in 0.9% NaCl (this step was omitted for cultures with PHA-stimulation-see below). […] For cell cultures with PHA-stimulation, PBMC were washed in Hank's Balanced Salt Solution (HBSS) with 10% autologous plasma instead of RPMI/2% HSA. […] The cell suspension was stained with Turk's solution and the number of lymphocytes and monocytes in the PBMC preparation were counted in a hemocytometer. PBMCs were suspended in RPMI/2% HSA and the cell concentration adjusted to 5×10^5 lymphocytes/ml.
# 100 μl of the cell suspension were seeded into round-bottomed microtiter plates (Corning, N.Y., USA) followed by 100 μl of culture medium consisting of RPMI 1640 (Flow Laboratories, Irvine, Scotland) supplemented with 200 IU/ml Penicillin, 200 μg/ml Streptomycin (Flow laboratories) and 20% heat inactivated autologous serum. Phytohemagglutinin (PHA-P, Sigma Chemical Co, St. Louis, Mo.) at a final concentration of 5 or 10 μg/ml was then added.
# All culture conditions were set up in triplicate wells. […] Mean values of disintegrations per minute (dpm) of triplicates were used for the calculations.
# PBMC [1] = assay: LPS-induced IL-6 production by PBMC, effect of peptides; assay type: cell-based, human
# Protocol: 100 μl of culture medium consisting of RPMI1640 supplemented with 200 IU/ml penicillin, 200 μg/ml streptomycin, 4 mM L-glutamine (Sigma Chemical, Mo., US) and 20% fresh heat-inactivated autologous serum were added to un-coated or -pre-coated microtiter plates followed by 100 μl of PBMC suspension (5×10^4 lymphocytes) in RPMI/2% HSA with peptides at the indicated concentrations. Lipoplysaccharide (LPS, Sigma Chemical Co, MO, US) was added at a final concentration of 0.05 ng/ml. […] All assay conditions were set up in triplicate wells. Supernatants (SNs) were harvested after 24 hrs and residual cells were removed by centrifugation in a refrigerated centrifuge (Beckman) at 2600×g for 5 minutes. SNs were frozen and stored at −70° C. IL-6 in cell culture SNs was measured by ELISA using the DuoSet® ELISA development kit for human IL-6 (R&D Systems Europe, Ltd., Abingdon, UK) following the manufacturer's recommended procedures. The lower limit of detection was 3.1 pg/ml. Samples were analysed as mean of triplicate wells.
# PBMC [2] = assay: IL-2 induced proliferation of PBMC with albumin peptides in coated and uncoated tissue culture plates; assay type: cell-based, human; details: PBMC from healthy individuals; peptide 5 μg/ml final; 7 days
# Protocol: A mixture of 1 mg/ml IgG in a solution of 9 mg/ml HSA in RPMI (HSA/IgG) was also prepared. 200 μl of HSA or HSA/IgG were then added to each well of the plate. The plates were incubated at 4° C. for 30 minutes after which the wells were washed twice with 200 μl of RPMI1640. The coated plates were used immediately. […] PBMC, isolated from healthy individuals, were diluted in RPMI/2% HSA and peptides were added directly to the cell suspension at a concentration of 10 μg/ml.
# [3] = tested on: cell surface receptors of immune cells (ACS); assay: Adsorption of enzyme fragmented dHSA on affinity column with biotinylated cell surface proteins (ACS), MALDI-TOF ms; assay type: binding, human
# Protocol: Based on the observation that immunoregulatory peptide sequences are present in serum albumin, there is the possibility that other sequences than the epitope of mAb A have immunoregulatory function. Therefore an artificial cell surface (ACS) was prepared as described in materials and methods. […]
# To remove unfragmented albumin and enzyme, the sample was ultra filtered through an Amicon Ultra 4 (mw cut-off of 5000) or a Centriplus (mw cut-off 10000) centrifugal filter (Millipore AB, Solna, Sweden). The filtrate, containing fragmented dHSA without enzymes, was collected and diluted with PBS with Ca and Mg (GIBCO).
# Buffy coats generated from 450 ml blood each was collected from 4 healthy donors. Erythrocytes were removed by sedimentation on 2% dextran T500 solution (Amersham Pharmacia Biotech AB, Uppsala Sweden) in 0.9% NaCl. Mononuclear cells (PBMC) were then isolated by Ficoll-Paque Plus (GE Healthcare Bioscience AB Sweden) density gradient centrifugation. The PBMC were then suspended in phosphate buffered saline (PBS) containing Ca and Mg (GIBCO) at a concentration of 10×10^6/ml. EZ Link Sulfo-NHS-biotin (Pierce USA) was added at a final concentration of 0.2 mg/ml and the mixture incubated on a shaker at room temperature for 10 min. Excess biotin was then removed by washing the PBMC in PBS. Biotinylated PBMC were then lysed by adding 1.0 ml ice-cold lysing buffer (50 mM Tris-HCL, pH 7.5, with 0.15 M NaCl, 5 mM MgCl2 containing 100 mM Octyl glucoside and 1 mM Phenylmethylsulfonyl fluoride) per 2×10^7 pelleted cells with gentle shaking, then incubated for 30 min. on ice. Debris was removed by centrifugation at 5000×g at 4° C. for 10 min and the supernatants was collected and pooled from all four donors. The lysate was then stored at −70° C. in polypropylene plastic tubes.
# This amount of lysate corresponds to 36×10^7 mononuclear cells. It was added to a 1 ml Hitrap Streptavidin HP affinity column (Amersham Biosciences). To block possible remaining free biotin, 5 ml of 0.1 M glycine (Sigma) was added to the column. Unsaturated streptavidin on the column was then reacted with 150 ug biotin (Sigma) in binding buffer. The column was carefully washed with PBS and stored in PBS with 0.1% NaN3 at 4° C. until use.
# 27 ml biotinylated cell lysate in binding buffer (corresponding to 54×10^7 mononuclear cells) was added to 1.5 ml washed Streptavidin Sepharose HP (Amersham Biosciences). To block possible remaining free biotin, 25 ml of 0.1 M glycine (Sigma) was added to the Streptavidin Sepharose. Unsaturated streptavidin was then reacted with 225 μg biotin (Sigma) in binding buffer. The Streptavidin Sepharose was carefully washed in PBS. One ml of the biotinylated cell lysate coupled Streptavidin Sepharose was then packed in an empty column (Tricorn Empty High Performance Column, Amersham Bioscience) and washed with phosphate buffered saline (PBS) containing Ca and Mg (GIBCO).
# The flow-through was collected with consideration taken to void volume and dilution of adsorbed sample by collecting in small portions of 0.2 ml. Thirty ul of each sample, including a control sample that has not been adsorbed, were dried in a Speed-Vac centrifuge.
# Dried samples were reconstituted in 10 ul of 0.1% TFA. Zip Tip pipette tips (Millipore, USA) containing C18 reversed-phase media were used for desalting reconstituted samples. […] For the analysis of samples in the mass range 1500-9000 Da, one μl of each Zip Tip eluted sample was mixed with 1 μl of sinapinic acid ([…]). […] Mass identity search of resulting spectra was performed in the SwissProt or NCBI databases using MS-Fit.
# PBMC [4] = assay: Human ex vivo model: IL-2 induced proliferation of PBMC in the presence of albumin peptides; details: alone or in combination
# [5] = biological target: T1, β2-integrin LFA-1 (CD11a) (Homo sapiens, UniProt P20701); assay: Immunocytochemical staining of PBMC and THP-1 with anti-integrin (CD11a) antibody with or without albumin peptides; assay type: binding; details: for binding to LFA-1: Table 9 summary; for effect on binding of the LFA-1 antibody (HI 111) to LFA-1: mononuclear blood cells
# T1 construct: endogenous in cells; host or cells: human PBMC (healthy controls, cancer patients) and THP-1 monocytic cell line (ATCC)
# T1 sequence (P20701 26-1170): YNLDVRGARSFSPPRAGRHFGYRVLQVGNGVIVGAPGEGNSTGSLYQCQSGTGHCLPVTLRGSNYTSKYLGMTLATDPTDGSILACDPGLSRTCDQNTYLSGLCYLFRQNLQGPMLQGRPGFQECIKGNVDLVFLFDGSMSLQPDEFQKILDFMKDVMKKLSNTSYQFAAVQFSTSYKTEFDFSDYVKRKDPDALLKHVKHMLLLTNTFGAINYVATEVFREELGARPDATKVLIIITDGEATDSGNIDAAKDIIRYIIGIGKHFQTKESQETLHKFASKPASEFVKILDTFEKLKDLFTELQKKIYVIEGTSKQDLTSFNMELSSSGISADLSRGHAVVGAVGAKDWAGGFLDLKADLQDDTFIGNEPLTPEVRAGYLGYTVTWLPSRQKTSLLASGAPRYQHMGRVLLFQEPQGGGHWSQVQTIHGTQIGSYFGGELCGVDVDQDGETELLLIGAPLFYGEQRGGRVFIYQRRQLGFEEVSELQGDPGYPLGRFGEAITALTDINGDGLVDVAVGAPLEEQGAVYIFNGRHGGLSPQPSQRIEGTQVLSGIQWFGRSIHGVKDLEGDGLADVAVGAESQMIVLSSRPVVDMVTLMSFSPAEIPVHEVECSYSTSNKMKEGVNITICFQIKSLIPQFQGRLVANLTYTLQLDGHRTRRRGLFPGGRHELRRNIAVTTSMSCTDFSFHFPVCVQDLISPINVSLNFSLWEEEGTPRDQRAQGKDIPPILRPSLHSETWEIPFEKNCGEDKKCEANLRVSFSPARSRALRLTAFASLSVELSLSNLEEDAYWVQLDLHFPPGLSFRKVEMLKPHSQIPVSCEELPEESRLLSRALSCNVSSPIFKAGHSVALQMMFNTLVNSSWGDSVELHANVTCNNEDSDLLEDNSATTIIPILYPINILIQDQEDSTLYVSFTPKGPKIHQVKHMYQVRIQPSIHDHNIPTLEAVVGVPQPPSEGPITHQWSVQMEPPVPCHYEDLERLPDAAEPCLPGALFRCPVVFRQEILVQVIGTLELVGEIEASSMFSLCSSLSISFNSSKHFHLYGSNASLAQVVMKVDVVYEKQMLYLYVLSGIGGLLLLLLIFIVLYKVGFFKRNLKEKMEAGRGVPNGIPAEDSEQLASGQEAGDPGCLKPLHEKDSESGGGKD
# T1 sequence (P05107 23-769 partner): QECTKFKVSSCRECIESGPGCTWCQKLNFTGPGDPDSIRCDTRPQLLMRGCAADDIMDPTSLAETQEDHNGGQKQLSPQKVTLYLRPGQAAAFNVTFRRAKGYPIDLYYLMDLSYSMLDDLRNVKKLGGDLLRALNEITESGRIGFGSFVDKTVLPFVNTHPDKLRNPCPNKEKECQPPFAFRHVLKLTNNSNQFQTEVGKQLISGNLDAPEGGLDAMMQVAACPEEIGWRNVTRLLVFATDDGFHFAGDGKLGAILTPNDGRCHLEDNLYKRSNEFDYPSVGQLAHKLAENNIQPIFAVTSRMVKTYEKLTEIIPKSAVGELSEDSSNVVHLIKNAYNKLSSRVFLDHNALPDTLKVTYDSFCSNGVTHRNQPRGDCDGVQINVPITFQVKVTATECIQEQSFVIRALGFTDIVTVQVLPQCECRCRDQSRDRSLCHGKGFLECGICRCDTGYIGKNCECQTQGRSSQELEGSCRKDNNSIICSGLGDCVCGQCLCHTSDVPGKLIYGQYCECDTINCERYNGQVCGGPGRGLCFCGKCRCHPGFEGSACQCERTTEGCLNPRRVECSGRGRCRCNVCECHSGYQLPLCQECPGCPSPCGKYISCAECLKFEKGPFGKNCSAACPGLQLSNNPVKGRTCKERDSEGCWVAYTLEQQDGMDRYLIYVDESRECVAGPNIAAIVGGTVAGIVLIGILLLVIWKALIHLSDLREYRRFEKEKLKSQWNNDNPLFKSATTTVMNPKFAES
# Protocol: Cytospin preparations of mononuclear blood cells from healthy controls, cancer patients and a monocytic cell line, THP-1, were prepared (as described under materials and methods), dried and stored at −70° C. In the immunocytological staining, unspecific staining was blocked by incubation with 10% human AB serum. Some of the slides were preincubated for 60 minutes with albumin peptides at a concentration of 40 μg/ml, added to this 10% AB serum, as indicated in the FIG. 8 A-F. The staining procedure was then continued as described in material and methods. The staining intensity of slides stained with and without preincubation with the peptides was recorded semi quantitatively using a standard light microscope.
# PBMC were separated as described above. Cultured THP-1 cells (obtained from the American Type Culture Collection through LGL Nordic AB, Sweden) were carefully washed and suspended in RPMI1640. PBMC and THP-1 were immediately spun down on pre-cleaned microscope slides in a Shandon Cytospin (Shandon Scientific Ltd, UK) at 1000 RPM for 7 min at 2.5 or 5×10^4 cells per slide. The slides were left to dry at room temperature over night, after which they were wrapped in parafilm and stored at −70° C. Immediately before use, the cytospins were thawed and fixed with acetone for 5 min at room temperature. The cytospins were first blocked with 10% normal human AB-serum with and without albumin peptides (40 ␣g/ml) for 1 h before staining. Primary antibody, consisting of a monoclonal mouse anti-human CD11a (clone HI111, BD Biosciences) diluted in Tris buffered saline (TBS, pH 7.6) at 5 μg/ml (THP-1) or 1 µg/ml (PBMC), was added. The slides were incubated for 30 min and then washed in TBS followed by Envision-Alkaline Phosphatase (Dako Norden A/S, Denmark) for 30 min. After additional washing in TBS, the slides were incubated in alkaline phoshatase substrate consisting of Fast Red TR salt (Sigma), naphtol AS-MX (Sigma) and 5 mM levamisol (Sigma) to block endogenous alkaline phosphatase activity, for 20 min followed by washing in TBS. They were then counterstained in Mayer's haematoxylin for 1 minute and mounted in Glycergel (Dako Norden NS). Monoclonal mouse IgG1 against an irrelevant antigen (Aspergillus niger glukosoxidase, Dako Norden NS) was used as a negative control. All incubations were performed at room temperature in a moist chamber.
# FIG. 24. Inhibition of the binding of anti-LFA-1, mab HI111, to mononuclear blood cells by 3028 peptide and fragments 3325 and 3218. A standard immunohistochemical staining procedure using acetone fixation, 10% human AB-serum for blocking, incubation with HI 111 and a secondary antibody (Ultravision, an alkaline phosphate conjugated polymer attached to Fab-fragments of goat anti-mouse Ig), followed by development with Fast Red. The slides were then mounted in Glycergel. Preincubation with peptides added to the AB serum was as follows: A. No peptide added, B. peptide 3028, C. The C-terminal part (3218), and D. The N-terminal part (3325).
# [6] = tested on: natural killer (NK) cells; assay: Cytotoxic activity of natural killer (NK) cells against K562 (NKTEST, flow cytometry); assay type: cell-based, human; details: four healthy donors; peptides 10 ug/ml; effector:target ratio 40:1
# Protocol: Mononuclear cells were separated by standard Ficoll-paque Plus (Pharmacia AB, Sweden) density gradient centrifugation from heparinized blood obtained from healthy donors. NK cell cytotoxic activity of the mononuclear cells was then tested using a commercial kit (NKTEST, Orpegen Pharma GmbH, Heidelberg, Germany) following the manufacturers protocol. Briefly, the kit contains cryopreserved, NK-sensitive target cells (K562) labelled with a lipophilic green fluorescent membrane dye, which enables discrimination of effector and target cells. After incubation with effector cells, killed target cells are identified by a DNA-stain, which penetrates and specifically stain the nuclei of dead target cells. This way the percentage of killed targets can be determined by flow cytometry. The mononuclear cells were pre-incubated for 30 min at 37° C. with the indicated peptides (peptides have been described previously) at 10 ug/ml. Target cells were then added, giving an effector:target ratio of 40:1, and the cell mixture incubated at 37° C. for 3-4 hours. Samples were analysed on a FACSCalibur (BD Biosciences, San Jose, Calif.).
# rabbit anti-3028 = assay: Inhibition of rabbit anti-3028 ELISA by albumin peptides; assay type: binding; details: Table 9 summary
# Protocol: To test if albumin peptides inhibited the binding of the rabbit anti-3028 to 3028 coated wells, rabbit antisera, diluted 1/1000 000 in ELISA reagent diluent, was pre-incubated for 1 hr at room temperature with the indicated concentrations of the peptides. 100 μl of the […], or, alternatively, the monoclonal antibody mixed with peptides, was then added to 3028 coated wells and the ELISA carried out as described.
Substance,effect on LPS induced IL-6 production (PBMC [1]; renal cell carcinoma patient),effect on IL-2 induced proliferation (PBMC [2]),effect on LPS induced IL-6 production (PBMC [1]; two healthy controls),neutralisation of the inhibitory effect of peptide 3028 on IL-2 induced proliferation (PBMC [4]),binding to LFA-1 [5],effect on binding of the LFA-1 antibody (HI 111) to LFA-1 [5],also measured
NEETFLKKYLYEIARRHPYFYAP [peptide 3026],stimulatory effect,no statistically significant activity,,,,,effect on dHSA modulated PHA stimulated proliferation (PBMCs): inhibited the stimulatory activity of dHSA; effect on LPS induced IL-6 production (PBMC [1]; healthy control PBMC1): clear biphasic effect; effect on LPS induced IL-6 production (PBMC [1]; healthy control PBMC 2): no certain effect
KVPQVSTPTLVEVSR [compound 3029],,no statistically significant activity,slight stimulatory effect in only one of the controls,,,,"effect on LPS induced IL-6 production (PBMC [1]; three cancer patients): essentially no effects; Per cent adsorbed ([3]; Table 5 A, peptides generated by trypsin degradation of dHSA): 0.64 Per cent; Per cent adsorbed ([3]; Table 5 B, trypsin peptides selected for synthesis): 0.64 Per cent"
"VFDEFKPLVE [peptide 3325, N-terminal part of peptide 3028]",,,,not neutralised,Weak binding,inhibit the binding of mAb HI 111 to LFA-1,
ELFEQLGEYKFQNALLVR [peptide 3027],stimulatory effect,no statistically significant activity,slightly stimulatory in one of the controls and had an inhibitory effect in the other,,,,effect on LPS induced IL-6 production (PBMC [1]; melanoma patients): stimulated one of the melanoma patients; effect on percent specific lysis of K562 target cells [6]: Inhibition was not seen
peptide 3218: C-terminal part of peptide 3028 (EPQNLIK),,,,not neutralised,Weak binding,inhibit the binding of mAb HI 111 to LFA-1,binding to affinity purified antibodies (rabbit anti-3028): Does not bind
